Among the data in US11267800B2, “Cyclohexyl acid triazole azines as LPA antagonists” (BRISTOL-MYERS SQUIBB COMPANY, priority 2017, dated 2022) are IC50 values, retold here.

In general, IC50 refers to the concentration that gives 50% inhibition.

Structures can show the parent of a compound that is named as a salt.

T1 sequence (Q92633 whole entry): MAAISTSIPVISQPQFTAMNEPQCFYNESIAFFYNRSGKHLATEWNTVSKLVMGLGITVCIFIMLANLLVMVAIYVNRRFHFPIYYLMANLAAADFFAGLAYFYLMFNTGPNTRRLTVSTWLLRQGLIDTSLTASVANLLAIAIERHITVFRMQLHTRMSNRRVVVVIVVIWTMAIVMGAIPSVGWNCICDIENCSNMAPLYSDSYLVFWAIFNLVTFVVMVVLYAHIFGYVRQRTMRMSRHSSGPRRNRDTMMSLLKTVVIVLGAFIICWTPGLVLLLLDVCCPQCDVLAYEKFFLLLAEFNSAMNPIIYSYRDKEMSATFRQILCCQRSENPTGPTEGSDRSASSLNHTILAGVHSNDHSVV

The assay has as its target T1, human LPA1 (Homo sapiens, UniProt Q92633).
T1 construct: expressed in transfected cells; host or cells: Chinese hamster ovary (CHO) cells
As to the kind of experiment: LPA1 functional antagonist assay (calcium flux). Particulars: CHO cells overexpressing human LPA1; inhibition of calcium flux induced by 10 nM LPA; read-out: hLPA1 IC50. The class given is cell-based. The protocol: The effectiveness of compounds of the present invention as LPA1 inhibitors can be determined in an LPA1 functional antagonist assay as follows:
Chinese hamster ovary cells overexpressing human LPA1 were plated overnight (15,000 cells/well) in poly-D-lysine coated 384-well microplates (Greiner bio-one, Cat #781946) in DMEM/F12 medium (Gibco, Cat #11039). Following overnight culture, cells were loaded with calcium indicator dye (AAT Bioquest Inc, Cat #34601) for 30 minutes at 37° C. The cells were then equilibrated to room temperature for 30 minutes before the assay. Test compounds solubilized in DMSO were transferred to 384 well non-binding surface plates (Corning, Cat #3575) using the Labcyte Echo acoustic dispense and diluted with assay buffer [1×HBSS with calcium/magnesium (Gibco Cat #14025-092), 20 mM HEPES (Gibco Cat #15630-080) and 0.1% fatty acid free BSA (Sigma Cat #A9205)] to a final concentration of 0.5% DMSO. Diluted compounds were added to the cells by FDSS6000 (Hamamatsu) at final concentrations ranging from 0.08 nM to 5 μM. and were then incubated for 20 min at room temperature at which time LPA (Avanti Polar Lipids Cat #857130C) was added at final concentrations of 10 nM to stimulate the cells. The compound IC50 value was defined as the concentration of test compound which inhibited 50% of the calcium flux induced by LPA alone. IC50 values were determined by fitting data to a 4-parameter logistic equation (GraphPad Prism, San Diego Calif.).
On to `CCc1ccnc(OCc2c(-c3ccc(O[C@H]4CCC[C@H](C(=O)O)C4)c(C)n3)nnn2C)c1` [Example 280], for which the IC50 came to 15.3 nM.

As to `COc1cc(OC)nc(NCc2c(-c3ccc(O[C@H]4CCC[C@H](C(=O)O)C4)c(C)n3)nnn2C)n1` [Example 172], the IC50 is 61 nM. As to `Cc1nc(-c2nnn(C)c2Nc2cccc(OCc3ccccc3)n2)ccc1O[C@H]1CCC[C@H](C(=O)O)C1` [Example 237, (1S,3S)-3-((6-(5-((6-(benzyloxy)pyridin-2-yl)amino)-1-methyl-1H-1,2,3-triazol-4-yl)-2-methylpyridin-3-yl)oxy)cyclohexane-1-carboxylic acid], the IC50 was determined as 55 nM.

Take `Cc1nc(-c2nnn(C)c2CNc2nccc(OCCCF)n2)ccc1O[C@H]1CCC[C@H](C(=O)O)C1` [Example 102]: the IC50 stood at 25 nM. The value for `Cc1nc(-c2nnn(C)c2CNc2ncc(F)c(NCCc3ccc(Cl)cc3)n2)ccc1O[C@H]1CCC[C@H](C(=O)O)C1` [Example 76] was 44 nM; that for `Cc1nc(-c2nnn(C)c2Nc2nccc(OCCC(F)(F)F)n2)ccc1O[C@H]1CCC[C@H](C(=O)O)C1` [Example 394] was 103 nM; that for `Cc1nc(-c2nnn(C)c2CNc2nccc(NCCC3CC3)n2)ccc1O[C@H]1CCC[C@H](C(=O)O)C1` [Example 50] was 243 nM. As to `Cc1nc(-c2nnn(C)c2Nc2cccc(Cc3ccccc3)n2)ccc1O[C@H]1CCC[C@H](C(=O)O)C1` [Example 226, (1S,3S)-3-((6-(5-((6-benzylpyridin-2-yl)amino)-1-methyl-1H-1,2,3-triazol-4-yl)-2-methylpyridin-3-yl)oxy)cyclohexane-1-carboxylicacid], the IC50 was determined as 19 nM. Take `Cc1cc(OCc2c(-c3ccc(O[C@H]4CCC[C@H](C(=O)O)C4)c(C)n3)nnn2C)ncn1` [Example 342]: the IC50 was 118 nM. As for `Cn1nnc(-c2ccc(O[C@H]3CCC[C@H](C(=O)O)C3)cn2)c1Nc1nccc(OCC2CC2)n1` [Example 243, (1S,3S)-3-((6-(5-((4-(cyclopropyl-methoxy)pyrimidin-2-yl)amino)-1-methyl-1H-1,2,3-triazol-4-yl)pyridin-3-yl)oxy)cyclohexane-1-carboxylic acid], the figure is 122 nM; as for `CCCOc1ccnc(Nc2c(-c3ccc(O[C@H]4CCC[C@H](C(=O)O)C4)cn3)nnn2C)n1` [Example 246, (1S,3S)-3-((6-(1-methyl-5-((4-propoxypyrimidin-2-yl)amino)-1H-1,2,3-triazol-4-yl)pyridin-3-yl)oxy) cyclohexane-1-carboxylic acid], 225 nM. In the case of `CCc1nc(-c2nnn(C)c2CNc2ccnc(OC3CC3)n2)ccc1O[C@H]1CCC[C@H](C(=O)O)C1` [Example 391], the concentration for half-maximal inhibition (IC50) is 208 nM. For `Cc1nc(-c2nnn(C)c2CNc2ccnc(OCC(C)C)n2)ccc1O[C@H]1CCC[C@H](C(=O)O)C1` [Example 92], the 50% inhibitory concentration (IC50) is 381 nM. As to `CCc1nc(-c2nnn(C)c2CNc2nccc(C3CCC3)n2)ccc1O[C@H]1CCC[C@H](C(=O)O)C1` [Example 387], the IC50 was 24 nM. The value for `Cc1nc(-c2nnn(C)c2COc2cc(-n3cccn3)ncn2)ccc1O[C@H]1CCC[C@H](C(=O)O)C1` [Example 369] was 8.4 nM. As for `COC(=O)c1cc(C(C)(C)C)nc(NCc2c(-c3ccc(O[C@H]4CCC[C@H](C(=O)O)C4)c(C)n3)nnn2C)n1` [Example 161], the figure is 443 nM; as for `Cc1nc(-c2nnn(C)c2CNc2nccc(CC(C)C)n2)ccc1O[C@H]1CCC[C@H](C(=O)O)C1` [Example 126], 22 nM; as for `Cc1cc(OC(C)C)nc(NCc2c(-c3ccc(O[C@H]4CCC[C@H](C(=O)O)C4)c(C)n3)nnn2C)n1` [Example 16], 29 nM. As for `CCC(C)Cc1ncnc(NCc2c(-c3ccc(O[C@H]4CCC[C@H](C(=O)O)C4)c(C)n3)nnn2C)n1` (stereo partly drawn) [Example 204, (1S,3S)-3-((2-Methyl-6-(1-methyl-5-(((4-(2-methylbutyl)-1,3,5-triazin-2-yl)amino)methyl)-1H-1,2,3-triazol-4-yl)pyridin-3-yl)oxy)cyclohexane-1-carboxylic acid], the figure is 106 nM. Turning to `Cc1nc(-c2nnn(C)c2COc2ccnc(C(F)(F)F)n2)ccc1O[C@H]1CCC[C@H](C(=O)O)C1` [Example 341], the IC50 was determined as 16 nM.

As to `C=CCCc1ccnc(NCc2c(-c3ccc(O[C@H]4CCC[C@H](C(=O)O)C4)c(C)n3)nnn2C)n1` [Example 260], the IC50 stood at 3.4 nM.

On to `Cc1nc(-c2nnn(C)c2CNc2nccc(OCC3(F)CC3)n2)ccc1O[C@H]1CCC[C@H](C(=O)O)C1` [Example 337], for which the half-maximal inhibitory concentration (IC50) stood at 112 nM.

With `CCc1ccnc(OCc2c(-c3ccc(O[C@H]4CCC[C@H](C(=O)O)C4)cn3)nnn2C)n1` [Example 347], the IC50 was 73 nM. The value for `Cc1nc(-c2nnn(C)c2Nc2nccc(OCC(F)(F)F)n2)ccc1O[C@H]1CCC[C@H](C(=O)O)C1` [Example 396] was 42 nM; that for `COCCCCOc1cc(OCc2c(-c3ccc(O[C@H]4CCC[C@H](C(=O)O)C4)c(C)n3)nnn2C)ncn1` [Example 360] was 100 nM.

On to `CCCCc1cccc(Nc2c(-c3ccc(O[C@H]4CCC[C@H](C(=O)O)C4)c(C)n3)nnn2C)n1` [Example 236, (1S,3S)-3-((6-(5-((6-butylpyridin-2-yl)amino)-1-methyl-1H-1,2,3-triazol-4-yl)-2-methylpyridin-3-yl)oxy)cyclohexane-1-carboxylic acid], for which the IC50 came out at 10 nM. The value for `Cc1nc(-c2nnn(C)c2Nc2nccc(C(C)C)n2)ccc1O[C@H]1CCC[C@H](C(=O)O)C1` [Example 241, (1S,3S)-3-((6-(5-((4-isopropyl-pyrimidin-2-yl)amino)-1-methyl-1H-1,2,3-triazol-4-yl)-2-methylpyridin-3-yl)oxy)cyclohexane-1-carboxylic acid] was 66 nM; that for `Cc1nc(-c2nnn(C)c2COc2nccc(-c3ccccc3)n2)ccc1O[C@H]1CCC[C@H](C(=O)O)C1` [Example 330, (1S,3S)-3-((2-Methyl-6-(1-methyl-5-(((4-phenylpyrimidin-2-yl)oxy)methyl)-1H-1,2,3-triazol-4-yl)pyridin-3-yl)oxy)cyclohexane-1-carboxylic acid] was 33 nM; that for `Cc1nc(-c2nnn(C)c2CNc2nccc(Oc3ccc(Cl)cc3)n2)ccc1O[C@H]1CCC[C@H](C(=O)O)C1` [Example 112] was 45 nM. As for `Cn1nnc(-c2ccc(O[C@H]3CCC[C@H](C(=O)O)C3)cn2)c1CNc1nccc(-c2cccnc2)n1` [Example 32], the figure is 277 nM.

For `Cc1nc(-c2nnn(C)c2CNc2nccc(-c3ccccc3F)n2)cnc1O[C@H]1CCC[C@H](C(=O)O)C1` [Example 138], the 50% inhibitory concentration (IC50) was determined as 33 nM. With `CCCc1ccnc(Nc2c(-c3ccc(O[C@H]4CCC[C@H](C(=O)O)C4)cn3)nnn2C)n1` [Example 247, (1S,3S)-3-((6-(1-methyl-5-((4-propylpyrimidin-2-yl)amino)-1H-1,2,3-triazol-4-yl)pyridin-3-yl)oxy) cyclohexane-1-carboxylic acid], the IC50 came out at 318 nM.

Take `COc1ccnc(OCc2c(-c3ccc(O[C@H]4CCC[C@H](C(=O)O)C4)c(C)n3)nnn2C)c1` [Example 281]: the 50% inhibitory concentration (IC50) was determined as 365 nM.

Turning to `Cc1nc(-c2nnn(C)c2CNc2cc(OC3CCC3)cnn2)ccc1O[C@H]1CCC[C@H](C(=O)O)C1` [Example 190, (1S,3S)-3-((6-(5-(((5-Cyclobutoxypyridazin-3-yl)amino)methyl)-1-methyl-1H-1,2,3-triazol-4-yl)-2-methylpyridin-3-yl)oxy)cyclohexane-1-carboxylic acid, bis TFA Salt], the IC50 came out at 187 nM.

With `Cc1nc(-c2nnn(C)c2COc2cc(OC(C)C)ncn2)ccc1O[C@H]1CCC[C@H](C(=O)O)C1` [Example 290], the half-inhibitory concentration (IC50) worked out at 30 nM.

For the molecule `CCOc1cc(C2CCC2)nc(NCc2c(-c3ccc(O[C@H]4CCC[C@H](C(=O)O)C4)c(C)n3)nnn2C)n1` [Example 402], the half-maximal inhibitory concentration (IC50) amounted to 36 nM. With `Cc1nc(-c2nnn(C)c2CNc2nccc(Oc3cccc(F)c3)n2)ccc1O[C@H]1CCC[C@H](C(=O)O)C1` [Example 109], the 50% inhibitory concentration (IC50) came out at 17 nM. The value for `CCC(F)(F)c1ccnc(NCc2c(-c3ccc(O[C@H]4CCC[C@H](C(=O)O)C4)c(C)n3)nnn2C)n1` [Example 134] was 28 nM; that for `CSc1cc(NCc2c(-c3ccc(O[C@H]4CCC[C@H](C(=O)O)C4)c(C)n3)nnn2C)ncn1` [Example 364] was 98 nM; that for `Cc1nc(-c2nnn(C)c2CNc2nccc(C(C)(C)O)n2)ccc1O[C@H]1CCC[C@H](C(=O)O)C1` [Example 153] was 704 nM. Turning to `Cc1nc(-c2nnn(C)c2CNc2ncc(F)c(C(C)(C)C)n2)ccc1O[C@H]1CCC[C@H](C(=O)O)C1` [Example 144], the IC50 worked out at 40 nM. As for `CCCCc1cncc(NCc2c(-c3ccc(O[C@H]4CCC[C@H](C(=O)O)C4)c(C)n3)nnn2C)n1` [Example 382], the IC50 came to 12 nM. `Cc1nc(-c2nnn(C)c2CNc2ccnc(OC3CC(F)(F)C3)n2)ccc1O[C@H]1CCC[C@H](C(=O)O)C1` [Example 261]: the half-maximal inhibitory concentration (IC50) was 124 nM.

As for `Cc1nc(-c2nnn(C)c2CNc2ccnc(C(C)C)n2)ccc1O[C@H]1CCC[C@H](C(=O)O)C1` [Example 267], the IC50 came to 278 nM.
